Assay results from patent publication US20160074428A1, “COMPOSITIONS AND METHODS FOR THE TREATMENT OF HUMAN IMMUNODEFICIENCY VIRUS INFECTION” (THE CHILDREN'S HOSPITAL OF PHILADELPHIA, priority 2013, published 2016).
No end group written: not given here.

Tests used:
[1] = molecular target: T1, NK1R (Homo sapiens, UniProt P25103); test: Intracellular calcium measurement by flow cytometry (Fluo-4/Fura-red ratio) in monocytes; type: cell-based
T1 construct: endogenous in cells; host or cells: freshly isolated human blood monocytes (gated within PBMC)
T1 sequence (P25103 1-311): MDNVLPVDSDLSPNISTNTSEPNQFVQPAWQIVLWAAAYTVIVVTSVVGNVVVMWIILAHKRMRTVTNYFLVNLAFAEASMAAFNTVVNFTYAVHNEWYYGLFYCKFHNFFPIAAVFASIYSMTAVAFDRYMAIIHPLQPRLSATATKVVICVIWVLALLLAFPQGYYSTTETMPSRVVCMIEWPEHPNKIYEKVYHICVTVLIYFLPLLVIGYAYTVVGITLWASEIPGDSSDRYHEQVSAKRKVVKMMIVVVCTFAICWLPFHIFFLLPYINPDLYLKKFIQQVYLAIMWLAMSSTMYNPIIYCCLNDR
Method: (§1) Intracellular calcium measurements. Freshly isolated monocytes were washed in Hank's balanced salt solution (HBSS) containing 1 mM calcium chloride then loaded with Fluo-4 AM (2 μM) and Fura-red AM (2 μM). Intracellular calcium recordings were performed using the Accuri C6 Analyzer (BD Biosciences, San Jose, Calif.). Fluorescence intensities were recorded in FL1-A (Fluo-4 AM) and FL3-A (Fura-red AM) channels. Intracellular calcium measurements were quantified by calculating the ratio between FL1-A/FL3-A values as a derived parameter in FlowJo 7.6.5 for Windows (Treestar Inc., Ashland, Oreg.) as previously described (1).
Gating on lymphocyte and monocyte populations was performed based of light scattering properties of the cells (FIG. 1A).

[2] = tested on: lymphocytes; test: Intracellular calcium measurement by flow cytometry in lymphocytes; type: cell-based, human; conditions: SP at concentrations as high as 30 μM; data not shown
Method: as §1
SP induces intracellular calcium increase in human monocytes. Our previous studies have shown that in U373MG cell NK1R stimulates the release of Ca^2+ from intracellular stores though activation of phospholipase C. To assess whether the effect of SP on monocytes is due to activation of NK1R we examined the levels of intracellular Ca^2+. We used a ratiometric calcium assay, where PBMC were loaded with Fluo-4 and Fura-red, then stimulated again with SP or appropriate agonist. Gating on lymphocyte and monocyte populations was performed based of light scattering properties of the cells (FIG. 1A). […] This pharmacology profile of NK1R, with high concentrations of SP required to elicit a response is consistent with the truncated form of NK1R.

[3] = tested on: CD163; test: CD163 measurement by flow cytometry on monocytes/macrophages; type: cell-based, human; conditions: for CD163 expression, time course: 10 μM SP
Method: CD163 measurement by flow cytometry. For time-course experiments, freshly isolated monocytes were stimulated with either IL-10 (20 ng/ml) or SP (10 μM) and after 0, 2, 4 and 6 days of culture the cells were detached and the expression of membrane-bound CD163 was quantified by flow cytometry. For the dose-response experiments, freshly isolated monocytes were stimulated with either IL-10 (0.2, 0.6, 2, 6 or 20 ng/ml) or SP (0.3, 1, 3, 10 or 30 μM) and after 4 days of culture the cells were detached for CD163 measurement. Macrophages were detached using Lidocaine (4 mg/ml) in HBSS with EDTA (1 mM) for 30 minutes at 37° C. Cells were labeled with anti-human CD163 antibody (clone R-20) conjugated with PE (Trillium Diagnostics, Scarborough, Me.) for 30 minutes at room temperature. After labeling, cells were washed and resuspended in Hank's balanced salt solution (HBSS). Flow cytometry experiments were performed on an Accuri C6 analyzer (BD Biosciences, San Jose, Calif.) in the Flow Cytometry Core Laboratory of the Children's Hospital of Philadelphia Research Institute.

[4] = tested on: HIV; conditions: cited from earlier work
[5] = tested on: HIV-Bal; test: HIV-Bal infection of macrophages, HIV gag mRNA by real time RT-PCR; type: cell-based, HIV-1; conditions: 0, 2, 10 or 20 μg/ml HbHp complex, 7 days postinfection
Method: HIV infection. Macrophages were incubated with HIV-Bal virus overnight, and then extensively washed to remove unbound virus. The culture medium and the reagents were replaced twice weekly. At days 5, 7, 9 and 11 post HIV infection, cellular RNA was extracted from the MDM for assessment of HIV gag mRNA expression using real time RT-PCR assays.
RNA Extraction and Real-Time RT PCR Assays. Total RNA was extracted from macrophages using RNeasy kit (Qiagen), and the potential DNA contamination was eliminated by on-column DNase digestion as instructed by the manufacturer (Qiagen). RNA concentration was determined by Qubit fluorometer using Quant-iT RNA Assay kit (Invitrogen, Eugene, Oreg.).
Total RNA (1 μg) was reverse transcribed using AffinityScript QPCR cDNA Synthesis kit ([…], Cedar Creek, Tex.) with random primer as instructed by the manufacture. Reverse transcriptase negative controls were used in order to control for genomic DNA contamination. 1 μl of the resulting cDNA was used as a template for real-time PCR amplification.
RNA Interference (RNAi). RNAi CD163 pool and control RNAi was purchased from Santa Cruz Biotechnologies. The siRNAs pool was transfected into macrophages with Lipofectamine RNAimax (Invitrogen), following the manufacturer's protocol. Experiments were carried out 48 h after transfection.

[6] = tested on: HIV-GFP-tagged reporter virus pSF162R3 Nef+; test: Infection of macrophages with HIV-GFP-tagged reporter virus, GFP fluorescence; type: cell-based; conditions: 0, 2, 10 or 50 μg/ml HbHp complex, 7 days postinfection
Method: FIG. 5. Effect of HbHp-complexes on HIV infection in macrophages. Hb and Hp were added to macrophages in a 1:1 molar ratio and incubated for 2 h at 37° C. a) Macrophages, treated with 0, 2, 10 or 20 μg/ml of HbHp complex and infected with HIV-BaL, were assayed 7 days postinfection for HIV GAG by real time RT PCR. b) Macrophages, treated with 0, 2, 10 or 50 μg/ml of HbHp complex and infected with HIV-GFP-tagged reported virus, were assayed 7 days postinfection for GFP fluorescence. c) Representative images of macrophages, treated with 0, 2, 10, and 50 μg/ml of HbHp complex and infected with HIV-GFP-tagged reported virus 7 days postinfection. Average results of three independent experiments are presented as mean±SD.
Virus. The M-tropic HIV-1 R5 strain Bal was obtained from the NIH AIDS Reagent Program. The HIV-GFP-tagged reporter virus pSF162R3 Nef+, was made based on HIV-SF162 strain and was a gift from Dr. Amanda Brown (John Hopkins School of Medicine, Baltimore, Md.) (45).
Microscopy. Macrophages were infected with HIV-GFP-tagged reported virus pSF162R3 Nef+. […] GFP intensity was quantified using ImageJ (National Institute of Mental Health, Bethesda, Md., USA).

Neurokinin B [NKB]
Ca2+ response to agonist ([1]; 10 μM agonist, SP induced a response in the same samples): failed to induce Ca^2+ responses

Substance P (RPKPQQFFGLM; ends and bridges not checked; UniProt P20366 58-68, looked up) [SP, undecapeptide neurotransmitter of the tachykinin family; purchased from Sigma]
intracellular Ca2+ increase in lymphocytes [2]: did not induce intracellular Ca^2+ increase | extent of CD163 induction compared with IL-10 [3]: lower extent than that induced by IL-10 | CD163 expression, time course ([3]; 4 days): significant increase | CD163 expression, time course ([3]; 6 days): did not persist | CD163 expression, dose response ([3]; SP 0.3-10 μM, 4 days): significant increase | levels of membrane bound CD163 with increasing doses ([3]; monocytes in AIM V medium without FBS, 4 days after treatment): progressively higher | effect on HIV infection of MDM [4]: promotes HIV infection

Hb-Hp complexes: hemoglobin-haptoglobin complexes, Hb and Hp added in a 1:1 molar ratio; ligand of CD163
HIV infection of macrophages (HIV GAG, RT PCR) [5]: concentration-dependent decrease | number of infected cells/well (GFP fluorescence) [6]: concentration-dependent decrease

C[C@@H](O[C@H]1OCCN(Cc2n[nH]c(=O)[nH]2)[C@H]1c1ccc(F)cc1)c1cc(C(F)(F)F)cc(C(F)(F)F)c1 [Aprepitant, aprepitant]
effect on SP induced calcium response ([1]; pre-treatment with 50 μM for 15 minutes before adding 10 μM SP): abolished SP induced calcium response

B1: interleukin-10 (protein, UniProt P22301 19-178, looked up)
Interleukin-10: SPGQGTQSENSCTHFPGNLPNMLRDLRDAFSRVKTFFQMKDQLDNLLLKESLLEDFKGYLGCQALSEMIQFYLEEVMPQAENQDPDIKAHVNSLGENLKTLRLRLRRCHRFLPCENKSKAVEQVKNAFNKLQEKGIYKAMSEFDIFINYIEAYMTMKIRN
notes: anti-inflammatory mediator that upregulates CD163 expression
CD163 expression, dose response ([3]; 0.2 ng/ml IL-10, 4 days of culture): significant increase | expression of CD163, time course ([3]; 20 ng/ml IL-10, 2 days): significant increase | CD163 expression, dose response ([3]; 20 ng/ml IL-10, 4 days of culture): had not induced maximal increase | expression of CD163, time course ([3]; 20 ng/ml IL-10, days 4 and 6, compared with day 2): higher
